Non-standard residues stand in square brackets, D forms with d. Residues, ends and D or L forms follow the SMILES beside them. *: point of attachment. Leu(ol) = CC(C)C[C@H](N)CO; Octanoyl = CCCCCCCC(=O)*; Aib = CC(C)(N)C(=O)O

The test system of assay [1] is Pyricularia oryzae IT10 strain on barley leaves (cv. Alora). The note with it: in vivo.
Assay [2] deals with Pyricularia oryzae IT10 strain on rice (cv. Vialone Nano). The note with it: in vivo.
Assay [3] relates to Pyricularia oryzae (strains AP, Guy11, I203 and IT10). Particulars: for inhibition of fungal growth compared to the untreated control: 96 h, 50 μM, pH 6.85.
Assay [4] deals with P. oryzae (IT10 strain) conidia. It counts as cell-based, Pyricularia oryzae.
Assay [5] deals with P. oryzae I203 strain. It is filed as cell-based, Pyricularia oryzae.
Assay [6] relates to P. oryzae IT10 strain. It is filed as cell-based, Pyricularia oryzae.
Assay [7] deals with P. oryzae AP strain. It is filed as cell-based, Pyricularia oryzae.
The subject of assay [8] is P. oryzae Guy11 strain. It is filed as cell-based, Pyricularia oryzae.
For assay [9], the system named is P. oryzae conidia. It is filed as cell-based, Pyricularia oryzae. The note with it: pH 7.

In the case of `CCCCCCCC(=O)NC(C)(C)C(=O)N[C@@H](CCCCN)C(=O)N[C@@H](CC(C)C)C(=O)NC(C)(C)C(=O)NCC(=O)NCC(=O)N[C@@H](CC(C)C)C(=O)NC(C)(C)C(=O)NCC(=O)N[C@H](C(=O)N[C@@H](CC(C)C)C(N)=O)[C@@H](C)CC` [Pep 2Rink] (Octanoyl-[Aib]KL[Aib]GGL[Aib]GIL-NH2), in assay [1], the “reduction of blast lesion area in comparison with untreated barley leaves” value (“reduction of blast lesion area” for short) is given as “about 92%”, the “representative lesions on barley leaves (in words)” value was “Almost no lesions” and the “significance of lesion inhibition compared to the Control” value was “Significant inhibition”. Further, in [2], the “reduction in Disease Severity Index (DSI)” value was 65-70% and the “representative lesions on rice leaves (in words)” value is reported as “reduced lesions”. In addition, the “inhibition of fungal growth compared to the untreated control” value in assay [3] is on record as “more than 90%”.
Regarding `CCCCCCCC(=O)NC(C)(C)C(=O)N[C@@H](CCCCN)C(=O)N[C@@H](CC(C)C)C(=O)NC(C)(C)C(=O)NCC(=O)NCC(=O)N[C@@H](CC(C)C)C(=O)NC(C)(C)C(=O)NCC(=O)N[C@H](C(=O)N[C@H](CO)CC(C)C)[C@@H](C)CC` [Pep 2] (Octanoyl-[Aib]KL[Aib]GGL[Aib]GI[Leu(ol)]), in assay [1], the “reduction of blast lesion area” value is listed as “ineffective”. In addition, the “inhibition of fungal growth compared to the untreated control” value in assay [3] is listed as “more than 90%”. For the same compound, the “morphology and germination of treated conidia” value (“morphology and germination” for short) in [4] is on record as “important morphological changes”.
With `CCCCCCCC(=O)NC(C)(C)C(=O)N[C@@H](CCCCN)C(=O)N[C@@H](CCCCN)C(=O)N[C@@H](CC(C)C)C(=O)NC(C)(C)C(=O)NCC(=O)N[C@H](C(=O)N[C@H](CO)CC(C)C)[C@@H](C)CC` [Pep 4C] (Octanoyl-[Aib]KKL[Aib]GI[Leu(ol)]), in [1], the “reduction of blast lesion area” value was roughly 70% and the “significance of lesion inhibition compared to the Control” value is “Significant inhibition”. Also, the “inhibition of fungal growth compared to the untreated control” value in assay [3] is “more than 90%”. Moreover, the “morphology and germination” value in [4] is reported as “important morphological changes”.
`CCCCCCCC(=O)NC(C)(C)C(=O)NCC(=O)N[C@@H](CC(C)C)C(=O)NC(C)(C)C(=O)N[C@@H](CCCCN)C(=O)N[C@@H](CCCCN)C(=O)N[C@@H](CC(C)C)C(=O)NC(C)(C)C(=O)NCC(=O)N[C@H](C(=O)N[C@H](CO)CC(C)C)[C@@H](C)CC` [Pep 4]: in [1], the “reduction of blast lesion area” value is recorded as “higher than 95%” and the “significance of lesion inhibition compared to the Control” value is “Significant inhibition”. In assay [2], the “reduction in Disease Severity Index (DSI)” value was 65-70%. In addition, the “inhibition of fungal growth compared to the untreated control” value in assay [3] is “more than 90%”. Moreover, in assay [4], the “morphology and germination” value is given as “important morphological changes”.
As for `CCCCCCCC(=O)NC(C)(C)C(=O)N[C@@H](CCCCN)C(=O)N[C@@H](CC(C)C)C(=O)NC(C)(C)C(=O)N[C@@H](CCCCN)C(=O)NCC(=O)N[C@@H](CC(C)C)C(=O)NC(C)(C)C(=O)N[C@@H](CCCCN)C(=O)N[C@H](C(=O)N[C@H](CO)CC(C)C)[C@@H](C)CC` [Pep 5] (Octanoyl-[Aib]KL[Aib]KGL[Aib]KI[Leu(ol)]), in assay [1], the “reduction of blast lesion area” value is on record as “higher than 95%” and the “significance of lesion inhibition compared to the Control” value is “Significant inhibition”. Moreover, in assay [2], the “reduction in Disease Severity Index (DSI)” value is listed as 65-70% and the “representative lesions on rice leaves (in words)” value is given as “reduced lesions”. Further, the “inhibition of fungal growth compared to the untreated control” value in assay [3] is reported as “more than 90%”. Also, in assay [4], the “morphology and germination” value is listed as “important morphological changes”.
Take “H-FKR[Aib]KK[Aib]FKK[Aib]WNWK-NH2 [Pep 12]”: the “inhibition of fungal growth (in words)” value in [3] is “relatively little or no inhibition against one or two strains”.
Regarding “Palmitoyl-His-Ala-Ala-His-Lys(ε-Ser)-Gly-COOH [Pep 19]”, the “inhibition of I203 strain (in words)” value in assay [5] was “did not inhibit”. Further, the “inhibition of IT10 strain (in words)” value in assay [6] is “partially inhibited”. Moreover, the “inhibition of fungal growth (in words)” value in assay [3] is given as “relatively little or no inhibition against one or two strains”. The “morphology and germination” value in [4] was “germinated normally and did not show any morphological alteration”. In addition, the “inhibition of AP strain (in words)” value in assay [7] is reported as “did not inhibit”. Besides, the “inhibition of Guy11 strain (in words)” value in assay [8] is “did not inhibit”.
Consider “nOct-Aib-Gly-Leu-Aib-Gly-Gly-Leu-Aib-Gly-Ile-Lol [Trichogin, Trichogin GA IV, reference compound]”, for which, in assay [1], the “reduction of blast lesion area” value is “ineffective”. Besides, the “activity of trichogin against P. oryzae in vitro” value in assay [3] is on record as “ineffective”.
With “nOct-Aib-Gly-Leu-Aib-Gly-Gly-Leu-Api-Gly-Ile-Lol [Pep 8Api]”, in assay [1], the “reduction of blast lesion area” value is “higher than 95%” and the “significance of lesion inhibition compared to the Control” value was “Significant inhibition”. Also, in assay [2], the “reduction in Disease Severity Index (DSI)” value is listed as 50-55%. The “inhibition of fungal growth (in words)” value in [3] is listed as “relatively little or no inhibition against one or two strains”. In assay [4], the “morphology and germination” value is “important morphological changes”.
Regarding “nOct-Aib-Gly-Leu-Aib-Gly-Lys-Leu-Aib-Gly-Ile-Lol [Pep 22]”, the “reduction of blast lesion area” value in assay [1] is “ineffective”. Besides, in [3], the “inhibition of fungal growth (in words)” value is “relatively little or no inhibition against one or two strains”.
“nOct-Aib-Gly-Leu-Aib-Lys-Aib-Leu-Aib-Gly-Ile-Lol [Pep 6]”: the “morphology and germination” value in assay [4] is “germinated normally and did not show any morphological alteration”. Further, in assay [9], the “mycelium growth in the presence of the peptide versus untreated control” value is recorded as “grew better than the untreated control”.
In the case of “nOct-Aib-Gly-Leu-Aib-Lys-Gly-Leu-Aib-Gly-Ile-Lol [Pep 3]”, the “reduction in Disease Severity Index (DSI)” value in assay [2] is listed as “inefficacy”.
Turning to “nOct-Aib-Gly-Leu-Aib-Lys-Lys-Leu—Leu-NH2 [Pep 4C1]”, the “reduction of blast lesion area” value in assay [1] is reported as “ineffective”. In [3], the “inhibition of fungal growth (in words)” value is given as “relatively little or no inhibition against one or two strains”.
In the case of “nOct-Aib-Lys-Leu-Aib-Gly-Lys-Leu-Aib-Gly-Ile-Lol [Pep 7]”, in assay [1], the “reduction of blast lesion area” value is “higher than 95%” and the “significance of lesion inhibition compared to the Control” value was “Significant inhibition”. Besides, in [2], the “reduction in Disease Severity Index (DSI)” value is on record as 65-70%. For the same compound, the “inhibition of fungal growth (in words)” value in assay [3] is “relatively little or no inhibition against one or two strains”.
On to “nOct-Aib—Lys-Lys-Leu-Aib-Gly-Ile-Leu-NH2 [Pep 4C2]”, for which, in [1], the “reduction of blast lesion area” value was “about 75%” and the “significance of lesion inhibition compared to the Control” value was “Significant inhibition”. Also, in assay [2], the “reduction in Disease Severity Index (DSI)” value is on record as 65-70% and the “representative lesions on rice leaves (in words)” value is “reduced lesions”. Also, the “inhibition of fungal growth (in words)” value in assay [3] is “relatively little or no inhibition against one or two strains”.

The values are drawn from paper PMC8551967 (Frontiers in Microbiology, 2021).
